Like-named read-outs stand apart in the source and are kept apart here.
Legend:
[1] = Skin concentration after topical application (UPLC/mass spectrometry); format: in vivo, C57Bl/6j wild type mice; details: for local concentration in skin at steady state: twice daily for seven days, even for the lower dose used (0.2%), 1 h after last application
Description: (§1) 50 µL of cardiac blood were diluted 1∶2 (v∶v) with milipore water and snap frozen immediately. Previously treated skin segments were shaved, tape-stripped three times to remove residual hair and non-absorbed ointment on the surface, and then snap frozen in liquid nitrogen. Frozen skin was ground and ten times the volume of methanol-water (1∶1 v/v) was added per weight unit of skin. A minimum of 20 mg of skin was used per each sample. Samples were homogenized with a Covaris S2 acoustic homogeniser. For both cardiac blood and skin homogenate, proteins were precipitated by adding 3 volumes of acetonitrile containing a suitable internal standard. All samples were then centrifuged for 10 minutes at 2800 rpm before transfer of 200 µL of supernatant into a 96 well plate and 100 µL of milliQ water added. Calibration curves were constructed in either untreated homogenised skin or blood to cover at least 3 orders of magnitude (1–2000 ng/mL) and extracted as for aforementioned study samples. All cardiac blood, skin samples and standards were then investigated by mass spectrometry as described below. For calculation of total blood volume, mice were weighed and an average blood volume of 7% (mL/g) of body mass was assumed.
(§2) An Acquity ultra high performance liquid chromatography (UPLC) system; consisting of an autosampler, the Acquity UPLC Sample Manager with Sample Organiser, a pump, the Acquity UPLC Binary Solvent Manager, an in-built column oven, a UV detector, the Acquity UPLC Photo Diode Array) and a Quattro Premier XE triple quadrupole mass spectrometer (Waters, UK). […] The analytical column was an Acquity UPLC BEH C18, 2.1 mm i.d. ×50 mm length, 1.7 µm particle size (Waters, UK). No guard column was used, but a vanguard […].
Mobile phase A was Milli-Q reverse phase de-ionised water with formic acid (0.1%, v∶v), mobile phase B was acetonitrile with formic acid (0.1%, v∶v). Mobile phase was delivered at a flow rate of 0.6 mL/min. […] Finally mobile phase B was returned to 5% over 0.1 min and maintained at this composition for 0.4 min. Total run time 3 min. […]

PPARβ/δ [2] = details: in vitro data taken from literature; ref references listed in Figure 1; read-out: EC50 PPARβ/δ competitive antagonism; cited from earlier work
other PPAR isoforms = system: other PPAR isoforms; design: method as in references listed in Figure 1 / ref 13; details: in vitro data taken from literature, ref references listed in Figure 1 / ref 13, cited from earlier work
[3] = Drug solubility in ointment, absence of crystals by polarised microscopy; format: physicochemical; details: Hydromol ointment with DMSO
Description: These included drug incorporation into liquified vehicle at 70°C, pre-disolvement in DMSO, ethanol, isopropanol, polyethyene glycol 300, and olive oil followed by vehicle incorporation, as well as a variety of vehicles (liquid paraffin, Hydromol ointment, aqueous ointment BP). Drug solubility was assessed using a previously reported method relying on the absence of crystals detectable by polarised microscopy.
All PPAR β/δ antagonists were custom-synthesized by AF-Chempharm (UK). […] Compound 3 h was pre-dissolved in DMSO, left at room temperature for 20 min at low agitation and then incorporated into Hydromol ointment using a melamin bowl to yield final concentrations of 0.5% (w/w) 3 h, and 5% (w/w) of DMSO, respectively. […] Vehicle-only contro ointment was prepared exactly as GSK0660 ointment while omitting the chemical itself. Ointments were stored in airtight containers at 4°C in the dark and made fresh once a week.

[4] = Blood concentration after topical application (UPLC/mass spectrometry); format: in vivo, C57Bl/6j wild type mice; details: for total amount of detectable compound in blood as fraction of total drug applied: 1 h after topical application, blood volume assumed 7% of body mass
Description: as §1, §2
(§3) Mobile phase A was Milli-Q reverse phase de-ionised water with formic acid (0.1%, v∶v), mobile phase B was acetonitrile with formic acid (0.1%, v∶v). Mobile phase was delivered at a flow rate of 0.6 mL/min. […] Finally mobile phase B was returned to 5% over 0.1 min and maintained at this composition for 0.4 min. Total run time 3 min.
(§4) The entire flow was introduced into the Mass spectrometer. The autosampler was set at 4°C and an injection voloume of 5 µL was used (partial loop). […] An in-house proprietary internal standard was used for determination of all 3 analytes.

PPARβ/δ [5] = details: cited from earlier work; for IC50: in vitro data taken from literature, ref references listed in Figure 1, read-out: IC50 PPARβ/δ binding
[6] = system: PPAR β/δ mediated psoriasis-like skin disease; assay: Prevention of epidermal hyperplasia, agonist GW501516 and antagonist both topical; format: in vivo, PPAR β/δ transgenic mice; details: antagonist ointment once per day, GW501516 0.1% ointment five times per week, 20 days
Description: (§5) Mice were sacrificed, skin samples obtained and processed for H&E based histology as described. All samples were photographed at 200× magnification. Epidermal thickness was measured for all slides by a blinded observer at perpendicular angle to the basement membrane. […] For each sample, two measurements were taken in two separately photographed non-adjacent sections of the H&E stained skin sample.

shaved dorsal skin = assay: Skin histology after one week of topical application (inflammatory changes); format: in vivo, C57Bl/6j wild type mice; details: for number of dermal nuclei per high power field: vs vehicle-only treated skin; for epidermal hyperplasia induced by antagonist: twice daily for one week
Description: We next determined the local concentrations in skin at steady state after prolonged topical application. […] Skin samples were then extracted and analysed by mass spectrometry for concentration determination as well as processed for histology. […] 90 min (cf. fig. 2b). […] Infrequently, we noted apoptotic epidermal keratinocytes (inset, middle row of H&E sections). Since these cells were also found in transgenic PPAR β/δ mice treated with the agonist only (figure S1), the exact underlying cause is unclear but unlikely to underlie the treatment effect of the antagonist creams.
Figure 4 Absence of inflammatory changes induced by PPAR β/δ antagonists in skin after topical application. […] Mice were sacrificed 1 h after the last ointment application and skin tissue processed for H&E based histology and mass spectrometry, as described in Methods. Data shown represent average ± s.d. of n = 3 mice per data point (left) treated with GSK (blue columns) or compound 3 h (red). Representative histology sections of all treated mice are shown on right. […] Horizontal bar represents 5 µm.
Mice were sacrificed, skin samples obtained and processed for H&E based histology as described. All samples were photographed at 200× magnification. Epidermal thickness was measured for all slides by a blinded observer at perpendicular angle to the basement membrane. The absence of variable planes of tissue sectioning as a confounder for apparent epidermal thickness was ruled out by verifying visible perpendicular insertion of hair follicles into the epidermis. For each sample, two measurements were taken in two separately photographed non-adjacent sections of the H&E stained skin sample.

[7] = design: method as in PMID 17975020; details: cited from earlier work
[8] = Storage stability at room temperature and light exposure; format: physicochemical
[9] = system: HB-EGF, IL1b, LCE3e/LCE3f expression; assay: Real-time PCR of PPAR β/δ target genes in skin; format: in vivo, PPAR β/δ transgenic mice
Text: Skin was processed by removing subcutaneous tissue and small skin pieces were snap frozen in liquid nitrogen. Frozen skin was ground and RNA was extracted using the NucleoSpin RNA/Protein kit from Macherey-Nagel. cDNA synthesis was done with the SuperScript Vilo cDNA synthesis kit from Invitrogen. Gene expression levels were quantified using TaqMan-based real-time PCR using Assays-on-Demand kits obtained from Applied biosystems according to the manufacturer's instruction and quantification performed as calibrated to the internal housekeeping gene GAPDH (LCE3f: Mm02605425, Il1β: Mm01336189, Hb-EGF: Mm00439305).

[10] = Drug quantification in skin and blood of diseased mice (mass spectrometry); format: in vivo, PPAR β/δ transgenic mice; details: for concentration at 12 h: 12 h after the last cream application
Description: as §1, §2, §3, §4

psoriasis (PASI scores) = system: psoriasis (PASI scores); design: method as in PMID 15479756; details: systemic administration; cited from earlier work
[11] = system: PPAR β/δ mediated skin disease; assay: Control of skin disease induced by i.p. GW501516, ointment at different frequencies; format: in vivo, PPAR β/δ transgenic mice
Description: All animal studies reported here were subject to approval of Tayside Research Ethics Committee, and are conducted in accordance with UK Home Office procedures (project licence 60/3800, licence holder JF). Breeding of PPAR β/δ transgenic mice and genotyping were all carried out as described previously. […]
as §5

PPAR β/δ = system: PPAR β/δ; design: method as in PMID 17488971; details: cited from earlier work
psoriasis = system: psoriasis; design: method as in PMID 12673084; details: cited from earlier work

CCCCOc1ccc(-c2ccc(C(=O)O)cc2C)cc1CNC(=O)c1ccc(C(F)(F)F)cc1F [compound 3 h]
local concentration in skin at steady state [1]: high local concentrations
EC50 (PPARβ/δ [2]): 0.011 µM
Activity on other PPAR isoforms (other PPAR isoforms; listed as Compound 3 h): lack of activity on other PPAR isoforms
Activity on other PPAR isoforms (other PPAR isoforms; listed as Compound 3h): Not active at 1 μM
drug concentration up to which the optimised ointment formulation is devoid of drug crystals [3]: up to 2 % (w/w)
peak systemic concentration compared with reported EC50/IC50 ([4]; 1 h after topical application of ointment): slightly above the in vitro determined EC50 value
total amount of detectable compound in blood as fraction of total drug applied [4]: less than 0.01%
IC50 (PPARβ/δ [5]): 0.01 µM
Ki (PPARβ/δ [5]; low reported Ki): 0.011 µM
psoriasis-like epidermal hyperplasia induced by GW501516 [6]: significantly attenuated
number of dermal nuclei per high power field (shaved dorsal skin; one week): unchanged as compared to vehicle-only treated skin
epidermal hyperplasia induced by antagonist (shaved dorsal skin; H&E): neither antagonist produced notable epidermal hyperplasia

COC(=O)c1sccc1S(=O)(=O)Nc1ccc(Nc2ccccc2)cc1OC [GSK0660]
half-life ([1]; C57Bl/6j, mouse, topical, 42 mg ointment applied to dorsal skin (figure 3)): ~1.5 h
local concentration in skin at steady state [1]: high local concentrations
bioavailability upon systemic administration [7]: lack of bioavailability upon systemic administration
Activity on other PPAR isoforms (other PPAR isoforms): Not active at 10 μM
drug concentration up to which the optimised ointment formulation is devoid of drug crystals [3]: up to 2 % (w/w)
total amount of detectable compound in blood as fraction of total drug applied [4]: less than 0.01%
drug accumulation in blood ([4]; blood measured for 24 h after drug application): no evidence of drug accumulation
total drug detectable in blood as fraction of total drug applied ([4]; over 24 h after drug application (figure 2b)): less than 0.01%
stability on storage (colour change) [8]: visible colour change from yellow to green
apoptotic epidermal keratinocytes (shaved dorsal skin; one week, H&E): apoptotic looking cells
number of dermal nuclei per high power field (shaved dorsal skin; one week): unchanged as compared to vehicle-only treated skin
epidermal hyperplasia induced by antagonist (shaved dorsal skin; H&E): neither antagonist produced notable epidermal hyperplasia
reversal of IL1b expression ([9]; qPCR, oral GW501516, ointment twice daily three weeks): only observed using the ointment containing GSK0660
concentration at 12 h ([10]; PPAR β/δ transgenic, mouse, skin, topical, after 20 days of treatment, read-out: concentration in skin tissue): 48 ± 18 ng/g
concentration at 12 h ([10]; PPAR β/δ transgenic, mouse, whole blood, topical, after 20 days, threshold of detection, read-out: concentration in blood): < 25 nM

CCc1ccc(CCOc2ccc(CC3SC(=O)NC3=O)cc2)nc1 (centres unmarked) [pioglitazone]
effect on PASI scores (psoriasis (PASI scores)): no marked reduction of PASI scores

O=C(NCCS(=O)(=O)c1ccc(C(F)(F)F)cn1)c1ccc(Cl)cc1 [GSK3787]
EC50 (PPARβ/δ [2]): 0.1 µM
Activity on other PPAR isoforms (other PPAR isoforms): Active on PPARγ at 1 μM
concentration at 20 days ([4]; C57Bl/6j, mouse, whole blood, topical, healthy mice after 20 days of twice-daily treatment, n = 3): 50.2 ± 25.7 nM
mode of receptor inactivation (PPARβ/δ [5]): irreversibly inactivates the receptor by forming a covalent bond
IC50 (PPARβ/δ [5]): 0.0067 µM
range of therapeutic activity ([11]; H&E of treated area and its edge (figure S2)): efficacy was limited to the area of cream application
reducing the amount of dermal infiltrate ([11]; even when applied only 3× per week (fig. 7b)): as effective as GSK0660
preventing epidermal hyperplasia ([11]; even when applied only 3× per week, comparator twice daily (fig. 7a)): as effective as GSK0660
expression of PPAR β/δ target genes LCE3f, IL1-beta, and HBEGF ([9]; twice-daily versus three times weekly application (fig. 8b)): suppression
tissue level of unmodified drug in lesional skin ([10]; 16 h after the final application): 240 ± 116 nmol/g of tissue
concentration at 16 h ([10]; PPAR β/δ transgenic, mouse, whole blood, topical, inflamed skin, 16 h after last cream application, read-out: concentration in blood at the end of the experiment): 445 ± 429 nM

Cc1cc(SCc2sc(-c3ccc(C(F)(F)F)cc3)nc2C)ccc1OCC(=O)O [GW501516]
systemic absorption relative to the antagonists ([4]; 1 h post application, ointment concentrated 10-fold less (0.1%)): 100 fold
peak serum concentration ([4]; 1 h post topical application, 0.1% ointment): 400 nM

CN(CCOc1ccc(CC2SC(=O)NC2=O)cc1)c1ccccn1 (centres unmarked) [rosiglitazone]
activation of PPAR β/δ (PPAR β/δ): can also activate PPAR β/δ
effect of topical application on psoriasis (psoriasis): showed no effect

CCCCCCCCCCCCCCSCC(=O)O [tetradecylthioacetic acid (TTA), tetradecylthioacetic acid]
effect of topical application on psoriasis (psoriasis): showed no effect

Source: paper PMC3351437, “Skin-Targeted Inhibition of PPAR β/δ by Selective Antagonists to Treat PPAR β/δ – Mediated Psoriasis-Like Skin Disease In Vivo” (PLoS ONE, 2012)
